# “And” between values parts separate entries of the source, which are not always exact repeats. Equal entries are not always repeated. “Also recorded” adds a separate entry of the source.
# Legend:
# [1] = system: kidney; assay: Renal histopathology of rats treated with T1, T2, T3; assay type: in vivo, rat
# Method: Each group consisted of 6 male and 6 female rats. The additional groups consisted of 6 males and 6 female rats treated with control compound for a single day and for five days, as described in Table 24.
# T2 “no observed effect level” (NOEL, i.e., the maximal dose at which no toxic effect is visible) is 15 mg/kg.
# At autopsy, both kidneys of each animal were removed and each kidney was cross sectioned. Half of each kidney was sent to RNA extraction and analysis.
# [2] = system: rat kidney samples; assay: Random-Forest classifiers applied to un-labeled samples of T1, T2, T3 and control (Table 30); conditions: for Average 'Toxic' (%): average of the two classifiers
# Method: To validate the optimal signature for classification of renal toxicity of a compound after five days of application a test of the signatory polynucleotide/gene expression in rat kidney samples consisting of tissues from rats exposed to three drug compounds and a single control group was carried out (Teva Pharmaceutical Industries, IL).
# The two optimal classifiers (signatures described in Tables 26 and 27) were applied to the qRT-PCR reads of the un-labeled samples and their calls was used to assign a level of toxicity to each group and, eventually, each compound.
# The classifiers described in Tables 26 and 27, were used for testing the un-labeled samples. Both classifiers were applied to the measurements of each sample, used the 30% bound from above, and the number of samples pass that bound in each group were summarized.
# [3] = system: kidney tissues of treated or untreated rats; assay: Real-time qRT-PCR of signature amplicons, validation stage, labeled and un-labeled samples (Table 23); conditions: for H31883_DB71_seg13 normalized qRT-PCR result / MUSCYCG1R_DB81_seg19-20 normalized qRT-PCR result / W41270_DB81_seg11 normalized qRT-PCR result: un-labeled sample, one line per animal; for AI045075_DB71_seg6 normalized qRT-PCR expression (Interferon stimulated exonuclease 20 (ISG20) transcript) / H31883_DB71_seg13 normalized qRT-PCR expression (Cyclin-G1 (CCNG1) transcript) / MUSCYCG1R_DB81_seg19-20 normalized qRT-PCR expression / W41270_DB81_seg11 normalized qRT-PCR expression (tumor necrosis factor receptor superfamily, member 12a transcript) / W64472_DB81_seg2 normalized qRT-PCR expression (Interferon stimulated exonuclease 20 (ISG20) transcript) / W83813_DB81_seg27 normalized qRT-PCR expression: un-labeled samples, kidney of individual male/female rats
# Outline: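 Each of four signature genes measured as wild-type and alternative-splice amplicons by qRT-PCR in treated or untreated rat kidney. Normalization was two-step: housekeeping-gene factor, then inter-plate correction from shared samples on a shuffled control plate; final values rescaled for display.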
# [4] = Ds1, Day1, oral gavage, female rat kidney
# [5] = Ds1, Day1, oral gavage, male rat kidney
# [6] = Ds1, Day5, oral gavage, female rat kidney
# [7] = Ds1, Day5, oral gavage, male rat kidney
# [8] = Ds2, Day1, oral gavage, female rat kidney
# [9] = Ds2, Day1, oral gavage, male rat kidney
# [10] = Ds2, Day5, oral gavage, female rat kidney
# [11] = Ds2, Day5, oral gavage, male rat kidney
smiles,measurement,setting,value
CN(C)c1cccc2c1CCC2Nc1cc(=O)[nH]c(=O)[nH]1.Cl (stereo not shown) [T2],Kidney histopathology findings,"[1]; 50 mg/kg, after 7 days","direct cortical tubular toxicity; also recorded: multifocal, consisting of tubular basophilia, indicating regeneration following necrosis; also recorded: basophilic tubules in the cortex, indicating post-necrotic regeneration"
same,Time after which visible pathological damage was seen,[1]; rats,7 days
same,no observed effect level (NOEL),[1]; rats,15 mg/kg
same,Renal damage,"[1]; rats, dose and duration as in the value",renal damage after 7 days of treatment at the 50 mg/kg dose
same,Average 'Toxic' (%),[2]; Ds1 Day1 Female,20%
same,Average 'Toxic' (%),[2]; Ds1 Day1 Male,25%
same,Average 'Toxic' (%),[2]; Ds1 Day5 Female,30%
same,Average 'Toxic' (%),[2]; Ds1 Day5 Male,83%
same,Average 'Toxic' (%),[2]; Ds2 Day1 Female,58.5%
same,Average 'Toxic' (%),[2]; Ds2 Day1 Male,0%
same,Average 'Toxic' (%),[2]; Ds2 Day5 Female,50%
same,Average 'Toxic' (%),[2]; Ds2 Day5 Male,30%
same,Toxicity conclusion from classifier calls,"[2]; signatures of Tables 26 and 27, 30% bound",nephrotoxic agents
same,H31883_DB71_seg13 normalized qRT-PCR result,[3]; [4],0.183 and 0.213 and 0.29 and 0.387
same,MUSCYCG1R_DB81_seg19-20 normalized qRT-PCR result,[3]; [4],0.54 and 0.419 and 0.836 and 0.49
same,W41270_DB81_seg11 normalized qRT-PCR result,[3]; [4],0.492 and 0.468 and 1.072 and 0.969
same,H31883_DB71_seg13 normalized qRT-PCR result,[3]; [5],0.955 and 0.798 and 0.931 and 1.182
same,MUSCYCG1R_DB81_seg19-20 normalized qRT-PCR result,[3]; [5],0.98 and 0.709 and 1.059 and 1.253
same,W41270_DB81_seg11 normalized qRT-PCR result,[3]; [5],0.801 and 0.791 and 1.076 and 1.477
same,H31883_DB71_seg13 normalized qRT-PCR result,[3]; [6],0.865 and 0.922 and 0.961 and 0.824 and 1.303
same,MUSCYCG1R_DB81_seg19-20 normalized qRT-PCR result,[3]; [6],0.771 and 1.02 and 1.923 and 1.232 and 0.94
same,W41270_DB81_seg11 normalized qRT-PCR result,[3]; [6],0.464 and 0.532 and 0.616 and 0.572 and 0.773
same,H31883_DB71_seg13 normalized qRT-PCR result,[3]; [7],0.11 and 0.209 and 0.27 and 0.299
same,MUSCYCG1R_DB81_seg19-20 normalized qRT-PCR result,[3]; [7],1.566 and 1.449 and 1.516 and 1.237
same,W41270_DB81_seg11 normalized qRT-PCR result,[3]; [7],1.445 and 1.42 and 1.258 and 1.447
same,H31883_DB71_seg13 normalized qRT-PCR result,[3]; [8],0.289 and 0.365 and 0.32 and 0.444 and 0.254
same,MUSCYCG1R_DB81_seg19-20 normalized qRT-PCR result,[3]; [8],2.008 and 0.857 and 3.044 and 2.152 and 0.71
same,W41270_DB81_seg11 normalized qRT-PCR result,[3]; [8],1.104 and 0.741 and 1.73 and 1.211 and 0.666
same,H31883_DB71_seg13 normalized qRT-PCR result,[3]; [9],0.773 and 0.595 and 0.741 and 0.777 and 0.725 and 0.614
same,MUSCYCG1R_DB81_seg19-20 normalized qRT-PCR result,[3]; [9],1.006 and 0.729 and 0.541 and 1.015 and 0.588 and 0.471
same,W41270_DB81_seg11 normalized qRT-PCR result,[3]; [9],1.462 and 0.692 and 0.656 and 1.23 and 0.866 and 0.837
same,H31883_DB71_seg13 normalized qRT-PCR result,[3]; [10],0.269 and 0.354
same,MUSCYCG1R_DB81_seg19-20 normalized qRT-PCR result,[3]; [10],0.799 and 3.003
same,W41270_DB81_seg11 normalized qRT-PCR result,[3]; [10],0.554 and 1.029
same,H31883_DB71_seg13 normalized qRT-PCR result,[3]; [11],0.615 and 1.022 and 0.962 and 0.626
same,MUSCYCG1R_DB81_seg19-20 normalized qRT-PCR result,[3]; [11],1.338 and 0.831 and 0.83 and 0.878
same,W41270_DB81_seg11 normalized qRT-PCR result,[3]; [11],0.899 and 1.446 and 0.623 and 1.049
same,AI045075_DB71_seg6 normalized qRT-PCR expression (Interferon stimulated exonuclease 20 (ISG20) transcript),"[3]; dose Ds1, Day1, oral gavage",1.308 and 0.744 and 1.159
same,H31883_DB71_seg13 normalized qRT-PCR expression (Cyclin-G1 (CCNG1) transcript),"[3]; dose Ds1, Day1, oral gavage",0.88 and 0.67 and 0.613 and 0.695 and 0.464 and 0.951 and 0.536 and 0.646 and 0.629 and 0.7 (2×)
same,MUSCYCG1R_DB81_seg19-20 normalized qRT-PCR expression,"[3]; dose Ds1, Day1, oral gavage",0.938 and 0.555 and 0.115 and 0.859 and 0.124 and 0.888 and 0.267 and 0.157 and 0.47 and 0.126 and 0.51
same,"W41270_DB81_seg11 normalized qRT-PCR expression (tumor necrosis factor receptor superfamily, member 12a transcript)","[3]; dose Ds1, Day1, oral gavage",0.481 and 0.662 and 0.473 and 0.76 and 0.474 and 0.876 and 0.959 and 0.518 and 0.823 and 3.38 and 0.623
same,W64472_DB81_seg2 normalized qRT-PCR expression (Interferon stimulated exonuclease 20 (ISG20) transcript),"[3]; dose Ds1, Day1, oral gavage",1.863 and 0.632 and 1.305
same,W83813_DB81_seg27 normalized qRT-PCR expression,"[3]; dose Ds1, Day1, oral gavage",0.305 and 0.666 and 0.84
same,AI045075_DB71_seg6 normalized qRT-PCR expression (Interferon stimulated exonuclease 20 (ISG20) transcript),"[3]; dose Ds1, Day5, oral gavage",1.016 and 1.11
same,H31883_DB71_seg13 normalized qRT-PCR expression (Cyclin-G1 (CCNG1) transcript),"[3]; dose Ds1, Day5, oral gavage",1.884 and 1.539 and 1.163 and 1.329 and 1.66 and 1.079 and 0.936 and 0.978 and 1.439 and 1.149 and 2.147
same,MUSCYCG1R_DB81_seg19-20 normalized qRT-PCR expression,"[3]; dose Ds1, Day5, oral gavage",0.107 and 0.113 and 1.399 and 1.006 and 0.148 and 0.127 and 0.736 and 1.386 and 1.293 and 0.172 and 0.179
same,"W41270_DB81_seg11 normalized qRT-PCR expression (tumor necrosis factor receptor superfamily, member 12a transcript)","[3]; dose Ds1, Day5, oral gavage",0.233 and 0.493 and 0.626 and 1.149 and 0.321 and 0.477 and 0.83 and 1.524 and 1.111 and 0.397 and 0.337
same,W64472_DB81_seg2 normalized qRT-PCR expression (Interferon stimulated exonuclease 20 (ISG20) transcript),"[3]; dose Ds1, Day5, oral gavage",0.929 and 0.996
same,W83813_DB81_seg27 normalized qRT-PCR expression,"[3]; dose Ds1, Day5, oral gavage",0.248 and 0.203
same,AI045075_DB71_seg6 normalized qRT-PCR expression (Interferon stimulated exonuclease 20 (ISG20) transcript),"[3]; dose Ds2, Day1, oral gavage",1.43
same,H31883_DB71_seg13 normalized qRT-PCR expression (Cyclin-G1 (CCNG1) transcript),"[3]; dose Ds2, Day1, oral gavage",0.832 and 0.773 and 0.635 and 0.722 and 0.618 and 0.999 and 0.602 and 0.522 and 1.006 and 1.079 and 0.84 and 0.762
same,MUSCYCG1R_DB81_seg19-20 normalized qRT-PCR expression,"[3]; dose Ds2, Day1, oral gavage",0.211 and 0.531 and 0.505 and 0.585 and 0.475 and 0.661 and 0.197 and 0.458 and 0.167 and 0.192 and 0.14 and 0.111
same,"W41270_DB81_seg11 normalized qRT-PCR expression (tumor necrosis factor receptor superfamily, member 12a transcript)","[3]; dose Ds2, Day1, oral gavage",1.747 and 1.016 and 0.424 and 0.589 and 0.545 and 0.528 and 0.384 and 0.577 and 1.729 and 1.125 and 0.594 and 0.92
same,W64472_DB81_seg2 normalized qRT-PCR expression (Interferon stimulated exonuclease 20 (ISG20) transcript),"[3]; dose Ds2, Day1, oral gavage",0.804
same,W83813_DB81_seg27 normalized qRT-PCR expression,"[3]; dose Ds2, Day1, oral gavage",0.201
same,AI045075_DB71_seg6 normalized qRT-PCR expression (Interferon stimulated exonuclease 20 (ISG20) transcript),"[3]; dose Ds2, Day5, oral gavage",0.609 and 1.842 and 0.637
same,H31883_DB71_seg13 normalized qRT-PCR expression (Cyclin-G1 (CCNG1) transcript),"[3]; dose Ds2, Day5, oral gavage",1.386 and 0.676 and 1.01 and 1.128 and 1.161 and 1.146 and 1.057 and 0.942 and 1.256
same,MUSCYCG1R_DB81_seg19-20 normalized qRT-PCR expression,"[3]; dose Ds2, Day5, oral gavage",0.345 and 0.169 and 0.513 and 0.148 and 0.185 and 0.997 and 0.746 and 0.686 and 0.655
same,"W41270_DB81_seg11 normalized qRT-PCR expression (tumor necrosis factor receptor superfamily, member 12a transcript)","[3]; dose Ds2, Day5, oral gavage",1.186 and 0.308 and 0.497 and 0.711 and 1.237 and 0.857 and 0.788 and 0.457 and 0.668
same,W64472_DB81_seg2 normalized qRT-PCR expression (Interferon stimulated exonuclease 20 (ISG20) transcript),"[3]; dose Ds2, Day5, oral gavage",0.731 and 1.178 and 0.485
same,W83813_DB81_seg27 normalized qRT-PCR expression,"[3]; dose Ds2, Day5, oral gavage",0.601 and 0.555 and 0.354
